In patent publication US9023789B2, “Amylin analogs and pharmaceutical compositions thereof” (Novo Nordisk A/S, priority 2012, dated 2015):
In brackets after ≈: the same amount, converted by molar mass. Where two headings read alike, the source gives them in different places. Numbered stars: 1 amine (or outer) side, 2 acyl side, 3 side chain; on linkers, the order of the positions; unused ones are H or OH. Bridge positions count the residues as written; N and C are the ends. Side chains are listed from the residue outwards. Peptide text beside a SMILES is read from it. * marks the point of attachment. C20 diacid = O=C(O)CCCCCCCCCCCCCCCCCCC(=O)*; γGlu = O=C(O)[C@H](CCC(=O)[*:2])N[*:1]; AEEA = NCCOCCOCC(=O)O

Assays:
[1] = biological target: T1, human amylin 3(a) receptor (human calcitonin receptor + RAMP-3) in BHK570 cells (Homo sapiens, UniProt O60896+P30988); assay: ASSAY (II)a functional assay, human amylin receptor (CRE luciferase); assay type: cell-based
T1 construct: expressed in transfected cells
T1 sequence (O60896 24-148): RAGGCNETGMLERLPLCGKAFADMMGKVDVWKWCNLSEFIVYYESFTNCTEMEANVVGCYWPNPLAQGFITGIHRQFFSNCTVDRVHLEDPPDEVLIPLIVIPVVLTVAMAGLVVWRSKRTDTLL
T1 sequence (P30988 25-474): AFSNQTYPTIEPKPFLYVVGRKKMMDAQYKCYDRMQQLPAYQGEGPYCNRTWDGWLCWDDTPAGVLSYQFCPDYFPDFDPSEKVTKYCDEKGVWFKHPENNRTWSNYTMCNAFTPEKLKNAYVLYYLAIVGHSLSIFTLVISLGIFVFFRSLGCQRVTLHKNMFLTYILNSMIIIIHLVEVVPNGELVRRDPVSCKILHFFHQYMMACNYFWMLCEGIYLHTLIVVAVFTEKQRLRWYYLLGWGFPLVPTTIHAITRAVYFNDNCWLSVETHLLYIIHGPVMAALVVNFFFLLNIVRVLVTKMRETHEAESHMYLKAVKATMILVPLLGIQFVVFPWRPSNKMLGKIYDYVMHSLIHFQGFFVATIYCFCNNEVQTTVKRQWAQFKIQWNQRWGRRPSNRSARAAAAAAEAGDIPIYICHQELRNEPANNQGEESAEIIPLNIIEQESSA
How it was run: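 Functional agonism was measured by CRE-luciferase reporter luminescence in BHK cells bearing calcitonin receptor, or calcitonin receptor plus RAMP-3 as the amylin 3(a) receptor. Stimulation lasted 3 hours at 37° C.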

[2] = biological target: T2, rat amylin receptor (rat calcitonin receptor + rat RAMP 3) (Rattus norvegicus, UniProt P32214+Q9JJ73); assay: ASSAY (VI) binding to the rat amylin receptor
T2 construct: expressed in transfected cells; host or cells: BHK tk'ts 13 (transient, FuGENE 6), membranes
T2 sequence (P32214 25-479 isoform P32214-2 limits assumed): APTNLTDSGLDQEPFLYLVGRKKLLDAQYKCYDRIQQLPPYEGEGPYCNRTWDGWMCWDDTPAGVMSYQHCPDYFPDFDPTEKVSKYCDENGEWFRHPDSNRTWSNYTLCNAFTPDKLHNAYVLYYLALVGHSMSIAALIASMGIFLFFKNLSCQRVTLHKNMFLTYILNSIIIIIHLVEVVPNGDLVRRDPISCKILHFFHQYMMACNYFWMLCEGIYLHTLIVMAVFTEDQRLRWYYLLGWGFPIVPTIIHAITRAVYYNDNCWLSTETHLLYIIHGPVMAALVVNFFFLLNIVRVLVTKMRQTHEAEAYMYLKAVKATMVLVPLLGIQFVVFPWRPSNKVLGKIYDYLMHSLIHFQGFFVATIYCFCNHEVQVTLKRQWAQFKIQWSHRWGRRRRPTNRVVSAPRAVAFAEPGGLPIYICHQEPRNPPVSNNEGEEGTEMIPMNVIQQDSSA
T2 sequence (Q9JJ73 23-147 partner): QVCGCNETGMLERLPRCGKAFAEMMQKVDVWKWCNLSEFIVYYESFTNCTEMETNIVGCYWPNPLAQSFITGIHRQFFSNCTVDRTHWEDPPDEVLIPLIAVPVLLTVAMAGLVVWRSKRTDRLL
How it was run: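 The cell-membrane assay assessed binding at the rat amylin receptor. BHK tk′ts 13 cells were transfected transiently with rat calcitonin receptor, with FuGENE® 6 (Roche) as the transfection reagent, used per the manufacturer's recommendations. Approximately 48 hours after transfection the cells were harvested, and membranes were prepared for measuring binding.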

[3] = ASSAY (IV) determination of solubility; assay type: physicochemical
How it was run: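 Solubility measured by UPLC of supernatant after centrifugation, following 18 h at room temperature. Peptide ([…] in water) was diluted 1:1 into 100 mM glycylglycine (pH 3.0, 4.0, 5.0) or bistrispropane (pH 6.0-8.0).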

[4] = hCTR funct. EC50 divided by hAmylin-R funct. EC50
[5] = hCTR funct. EC50 over hAmylin-R funct. EC50
[6] = human functional selectivity: hCTR funct. EC50 / hAmylin-R funct. EC50
[7] = Table 7, rat binding selectivity, rCTR IC50 / rAmylin-R IC50
[8] = Table 7a (preferred compounds), rat binding selectivity, rCTR IC50 / rAmylin-R IC50
[9] = ratio of rCTR bind IC50 to rAmylin-R bind IC50
[10] = Table 7, binding to rat amylin receptor, read-out: rAmylin-R bind IC50
[11] = bistrispropane buffer, pH 6.5, read-out: Solubility pH 6.5 Concentration
[12] = bistrispropane buffer, pH 7.5, read-out: Solubility pH 7.5 Concentration
[13] = bistrispropane buffer, pH 6.0, read-out: Solubility pH 6.0 Concentration
[14] = bistrispropane buffer, pH 7.0, read-out: Solubility pH 7.0 Concentration
[15] = bistrispropane buffer, pH 8.0, read-out: Solubility pH 8.0 Concentration
[16] = glycylglycine buffer, pH 3.0, read-out: Solubility pH 3.0 Concentration
[17] = glycylglycine buffer, pH 4.0, read-out: Solubility pH 4.0 Concentration
[18] = glycylglycine buffer, pH 5.0, read-out: Solubility pH 5.0 Concentration

Row | Ratio hCT/hAmylin funct. [1, 4] | Ratio hCT/hAmylin funct. [1, 5] | Ratio hCT/hAmylin funct. [1, 6] | Ratio rCT/rAmylin binding [2, 7] | Ratio rCT/rAmylin binding [2, 8] | Ratio rCT/rAmylin binding [2, 9] | IC50 [2, 10] | solubility at 18 h [3, 11] | solubility at 18 h [3, 12] | solubility at 18 h [3, 13] | solubility at 18 h [3, 14] | solubility at 18 h [3, 15] | solubility at 18 h [3, 16] | solubility at 18 h [3, 17] | solubility at 18 h [3, 18] | SMILES | further results
1 | 41.6 | 41.6 | 41.6 | 49.7 | 49.7 | 49.7 | 2.83 nM | ≥ 200 µM | ≥ 200 µM | ≥ 200 µM | ≥ 200 µM | ≥ 200 µM | ≥ 200 µM | ≥ 200 µM | ≥ 200 µM | CC[C@H](C)[C@H](NC(=O)[C@H](C)NC(=O)CNC(=O)[C@H](Cc1ccccc1)NC(=O)[C@H](CC(N)=O)NC(=O)[C@@H]1CCCN1C(=O)[C@H](CO)NC(=O)[C@H](CO)NC(=O)[C@H](Cc1c[nH]cn1)NC(=O)[C@H](CCCNC(=N)N)NC(=O)[C@H](CC(C)C)NC(=O)[C@H](Cc1ccccc1)NC(=O)[C@H](CCCNC(=N)N)NC(=O)[C@H](C)NC(=O)[C@H](CC(C)C)NC(=O)[C@H](CCCNC(=N)N)NC(=O)[C@H](CCC(N)=O)NC(=O)[C@@H](NC(=O)[C@H](C)NC(=O)[C@@H]1CSSC[C@H](NC(=O)[C@@H](N)CCCCNC(=O)CC[C@H](NC(=O)CCCCCCCCCCCCCCCCCCC(=O)O)C(=O)O)C(=O)N[C@@H](CC(N)=O)C(=O)N[C@@H]([C@@H](C)O)C(=O)N[C@@H](C)C(=O)N[C@@H]([C@@H](C)O)C(=O)N1)[C@@H](C)O)C(=O)N1CCC[C@H]1C(=O)N[C@@H](CO)C(=O)N[C@@H](CO)C(=O)N[C@H](C(=O)N[C@@H](CC(N)=O)C(=O)N[C@H](C(=O)NCC(=O)N[C@@H](CO)C(=O)N[C@@H](CC(N)=O)C(=O)N[C@H](C(=O)N[C@@H](Cc1ccc(O)cc1)C(N)=O)[C@@H](C)O)C(C)C)[C@@H](C)O [Example 83] | 
2 | 36.9 | 36.9 | 36.9 | 76.3 | 76.3 | 76.3 | 0.386 nM | ≥ 200 µM | ≥ 200 µM | ≥ 200 µM | ≥ 200 µM | ≥ 200 µM | ≥ 200 µM | ≥ 200 µM | ≥ 200 µM | CC[C@H](C)[C@H](NC(=O)[C@H](C)NC(=O)CNC(=O)[C@H](Cc1ccccc1)NC(=O)[C@H](CC(N)=O)NC(=O)[C@@H]1CCCN1C(=O)[C@H](CO)NC(=O)[C@H](CO)NC(=O)[C@H](Cc1c[nH]cn1)NC(=O)[C@H](CCCNC(=N)N)NC(=O)[C@H](CC(C)C)NC(=O)[C@H](Cc1ccccc1)NC(=O)[C@H](CC(N)=O)NC(=O)[C@H](C)NC(=O)[C@H](CC(C)C)NC(=O)[C@H](CCCNC(=N)N)NC(=O)[C@H](CCC(N)=O)NC(=O)[C@@H](NC(=O)[C@H](C)NC(=O)[C@@H]1CSSC[C@H](NC(=O)[C@@H](N)CCCCNC(=O)COCCOCCNC(=O)CCCCCCCCCCCCCCCCCCC(=O)O)C(=O)N[C@@H](CC(N)=O)C(=O)N[C@@H]([C@@H](C)O)C(=O)N[C@@H](C)C(=O)N[C@@H]([C@@H](C)O)C(=O)N1)[C@@H](C)O)C(=O)N1CCC[C@H]1C(=O)N[C@@H](CO)C(=O)N[C@@H](CO)C(=O)N[C@H](C(=O)N[C@@H](CC(N)=O)C(=O)N[C@H](C(=O)NCC(=O)N[C@@H](Cc1c[nH]cn1)C(=O)N[C@@H](CC(N)=O)C(=O)N[C@H](C(=O)N[C@@H](Cc1ccc(O)cc1)C(N)=O)[C@@H](C)O)C(C)C)[C@@H](C)O [Example 91] | 
3 | 28.0 | 28.0 | 28.0 | 156.4 | 156.4 | 156.4 | 0.668 nM | ≥ 200 µM | ≥ 200 µM | ≥ 200 µM | ≥ 200 µM | ≥ 200 µM | ≥ 200 µM | ≥ 200 µM | ≥ 200 µM | CC[C@H](C)[C@H](NC(=O)[C@H](C)NC(=O)CNC(=O)[C@H](Cc1ccccc1)NC(=O)[C@H](CC(N)=O)NC(=O)[C@@H]1CCCN1C(=O)[C@H](CO)NC(=O)[C@H](CO)NC(=O)[C@H](Cc1c[nH]cn1)NC(=O)[C@H](CCCNC(=N)N)NC(=O)[C@H](CC(C)C)NC(=O)[C@H](Cc1ccccc1)NC(=O)[C@H](Cc1c[nH]cn1)NC(=O)[C@H](C)NC(=O)[C@H](CC(C)C)NC(=O)[C@H](CCCNC(=N)N)NC(=O)[C@H](CCC(N)=O)NC(=O)[C@@H](NC(=O)[C@H](C)NC(=O)[C@@H]1CSSC[C@H](NC(=O)[C@@H](N)CCCCNC(=O)CC[C@H](NC(=O)CC[C@H](NC(=O)CCCCCCCCCCCCCCCCCCC(=O)O)C(=O)O)C(=O)O)C(=O)N[C@@H](CC(N)=O)C(=O)N[C@@H]([C@@H](C)O)C(=O)N[C@@H](C)C(=O)N[C@@H]([C@@H](C)O)C(=O)N1)[C@@H](C)O)C(=O)N1CCC[C@H]1C(=O)N[C@@H](CO)C(=O)N[C@@H](CO)C(=O)N[C@H](C(=O)N[C@@H](CC(N)=O)C(=O)N[C@H](C(=O)NCC(=O)N[C@@H](CO)C(=O)N[C@@H](CC(N)=O)C(=O)N[C@H](C(=O)N[C@@H](Cc1ccc(O)cc1)C(N)=O)[C@@H](C)O)C(C)C)[C@@H](C)O [Example 92] | 

Row | SMILES | Ratio hCT/hAmylin funct. [1, 4] | Ratio hCT/hAmylin funct. [1, 5] | Ratio hCT/hAmylin funct. [1, 6] | Ratio rCT/rAmylin binding [2, 7] | Ratio rCT/rAmylin binding [2, 8] | Ratio rCT/rAmylin binding [2, 9] | IC50 [2, 10] | solubility at 18 h [3, 11] | solubility at 18 h [3, 12] | solubility at 18 h [3, 13] | solubility at 18 h [3, 14] | solubility at 18 h [3, 15] | solubility at 18 h [3, 16] | solubility at 18 h [3, 17] | solubility at 18 h [3, 18] | further results
4 | CC[C@H](C)[C@H](NC(=O)[C@H](C)NC(=O)CNC(=O)[C@H](Cc1ccccc1)NC(=O)[C@H](CC(N)=O)NC(=O)[C@@H]1CCCN1C(=O)[C@H](CO)NC(=O)[C@H](CO)NC(=O)[C@H](Cc1c[nH]cn1)NC(=O)[C@H](CCCNC(=N)N)NC(=O)[C@H](CC(C)C)NC(=O)[C@H](Cc1ccccc1)NC(=O)[C@H](CO)NC(=O)[C@H](C)NC(=O)[C@H](CC(C)C)NC(=O)[C@H](CCCNC(=N)N)NC(=O)[C@H](CCC(N)=O)NC(=O)[C@@H](NC(=O)[C@H](C)NC(=O)[C@@H]1CSSC[C@H](NC(=O)[C@@H](N)CCCCNC(=O)COCCOCCNC(=O)CC[C@H](NC(=O)CCCCCCCCCCCCCCCCCCC(=O)O)C(=O)O)C(=O)N[C@@H](CC(N)=O)C(=O)N[C@@H]([C@@H](C)O)C(=O)N[C@@H](C)C(=O)N[C@@H]([C@@H](C)O)C(=O)N1)[C@@H](C)O)C(=O)N1CCC[C@H]1C(=O)N[C@@H](CO)C(=O)N[C@@H](CO)C(=O)N[C@H](C(=O)N1CCC[C@H]1C(=O)N[C@H](C(=O)NCC(=O)N[C@@H](CO)C(=O)N[C@@H](CC(N)=O)C(=O)N[C@H](C(=O)N[C@@H](Cc1ccc(O)cc1)C(N)=O)[C@@H](C)O)C(C)C)[C@@H](C)O [Example 73] (H-K([AEEA-γGlu-C20 diacid])CNTATCATQRLASFLRHSSPNFGAIPSSTPVGSNTY-NH2; disulfide 2-7 (inferred)) | 11.3 | 11.3 | 11.3 | 177.7 | 177.7 | 177.7 |  |  |  |  |  |  |  |  |  | IC50 [2]: 0.283 nM; solubility at 18 h ([3]; pH 3.0, read-out: Solubility pH 3.0 Concentration): ≥ 200 µM; solubility at 18 h ([3]; pH 4.0, read-out: Solubility pH 4.0 Concentration): ≥ 200 µM; solubility at 18 h ([3]; pH 5.0, read-out: Solubility pH 5.0 Concentration): ≥ 200 µM; solubility at 18 h ([3]; pH 6.0, read-out: Solubility pH 6.0 Concentration): ≥ 200 µM; solubility at 18 h ([3]; pH 6.5, read-out: Solubility pH 6.5 Concentration): ≥ 200 µM; solubility at 18 h ([3]; pH 7.0, read-out: Solubility pH 7.0 Concentration): ≥ 200 µM; solubility at 18 h ([3]; pH 7.5, read-out: Solubility pH 7.5 Concentration): ≥ 200 µM; solubility at 18 h ([3]; pH 8.0, read-out: Solubility pH 8.0 Concentration): 172 µM (≈ 771 µg/mL)
